From patent publication US5762910A, “Liposoluble compounds useful as magnetic resonance imaging agents” (ImaRx Pharmaceutical Corp., priority 1996, dated 1998)

Experiments:
[1] = In vitro relaxivity of liposomal contrast agents at 0.5 Tesla (Table I); assay type: physicochemical; details: 0.5 Tesla (21.3 MHz); liposomes EPC/cholesterol 8:2, 33 mole percent compound
Description: Liposomal contrast agents of the invention, prepared in accordance with Example 8, were serially diluted from a stock solution of known concentration. Diluted concentrations for testing were held constant at 0.5 mM, 0.25 mM, 0.125 mM, 0.100 mM, 0.05 mM, and 0.025 mM, respectively. Samples were scanned on a Toshiba MRT 50A 0.5 Tesla (21.3 MHz) clincal magnet equipped with a QD head coil (Toshiba MRI scanner, Nasu, Japan). Signal intensities for resulting scans were then statistically analyzed using a computer curve fitting program (Fit All, MTR Software, version 1.1). Resulting relaxivities were regressed against the concentration to determine R1 (1/T1 mmol sec^-1) and R2 ([…]). The results were compared with similar scans for other compounds not within the scope of the present invention. Specifically, as a comparison for the contrast agents of the invention, 0.5 Tesla scans were made of Gd-DTPA (no liposome), Mn-EDTA-MEA (no liposome), Mn-EDTA-MEA (incorporated into a liposome of 0.1 micron), and phosphate buffered saline (PBS).
In all liposome examples in Table I, the lipid concentration is 200 mM, and all liposomes are composed of 80 mole percent egg phosphatidyl choline (EPC) and 20 mole percent cholesterol. […]

[2] = In vitro relaxivity of Mn-EDTA-DDP and Mn-EDTA-DDP albumin suspensions at 0.5 Tesla (Table III); assay type: physicochemical; details: 0.5 Tesla (21.3MHz), in mM^-1 s^-1
Description: Mn-EDTA-DDP and Mn-EDTA-DDP albumin suspensions (contrast agents within the scope of the invention) were prepared in accordance with Example 11, except that water instead of saline was used. The samples scanned by NMR using a 0.5 Tesla (21.3MHz) Toshiba MRI scanner (Nasu, Japan) to determine relaxivity. The results were compared with similar scans for other compounds not within the scope of the invention. Specifically, scans were made of contrast agent of the invention, Mn-EDTA-DDP, Mn-EDTA-DDP albumin suspensions (both heated to 55° C., and unheated), and compared with scans of PBS, Gd-DTPA, MnCl2, and MnCl2 albumin suspensions. MnCl2, and the MnCl2 liposomes were prepared in accordance with Example 15.

[3] = background; compared with gadolinium alone; cited from earlier work
Outbred ICR mice = test: In vivo toxicity, LD50 in mice after intravenous tail vein injection (Table V); parameters: species or system mouse; details: i.v. tail vein
Description: Outbred ICR mice (Harlan Sprague Dawley, Indianapolis, Ind.) were injected intraveneously via a tail vein injection with various doses of Mn-EDTA-DDP and Mn-EDTA-DDP liposomes, prepared in accordance with Example 8, and the LD50 measured. As a comparison, the mice were also injected with MnCl2 and MnCl2 liposomes.
In Table V, MnCl2 liposomes denotes manganese chloride salt entrapped in 100 nm diameter liposomes comprised of 8:2 EPC/cholesterol. Also, Mn-EDTA-DDP in liposomes refers to 100 nm liposomes comprised of 1:3Mn-EDTA-DDP to lipid (where the lipid is 8:2 EPC/cholesterol).

[4] = test system: rats bearing hepatic tumors (C5 clonal derivative epithelioid neoplasms); test: In vivo efficacy, MR imaging at 1.5 Tesla of rats bearing hepatic tumors (Tables IV A-D); parameters: species or system rat; details: i.v.; for Tumor Contrast To Noise: 30 minute delay
Description: Mn-EDTA-ODP and Mn-EDTA-DDP liposomes of both 30 nm and 100 nm (contrast agents within the scope of the invention) were prepared in accordance with Example 8, injected intraveneously via a tail vein injection into rats bearing hepatic tumors (C5 clonal derivative epithelioid neoplasms), and the rats imaged using a 1.5 Tesla GE Signa Clinical Magnet equipped with a linear knee coil. Animals were anesthesized with a 10:1 mixture v/v of ketamine (100 mg/ml) and acepoumozine (10 mg/ml) prior to imaging. Imaging parameters were: TR=250; TE=12; Matrix=256×192; NEX=8; FOV 16 cm; Slice Thickness=3 mm; Slice Gap=1 mm. Images were taken in the coronal plane, mapped off an axial scout image. For comparison, rats were also injected with MnCl2, and MnCl2 liposomes, prepared in accordance with Example 15.
In Table IV A, imaging was preformed with one rat at each dose. S/N denotes signal to noise ratio.
In Table IV B, the "*" denotes a 30 minutes delay in imaging. Also, NA denotes that imaging was not done at the indicated dosage. The liposomes employed were composed of 80 mole percent egg phosphatidylcholine (EPC) and 20 mole percent cholesterol. With the Mn-EDTA-DDP liposomes, there was a 1:3 molar ratio of Mn-EDTA-DDP to lipid in the liposomes (lipid was 8:2 EPC/cholesterol). The data was obtained from one rat imaged at each dose.
In Table IV C, NT denotes that no tumors were detected, and NA denotes that imaging not done at the indicated dosage.
In Table IV D, NT denotes that no tumors were detected, and NA denotes that imaging not done at the indicated dosage.

Compound: O=C([O-])CN(CCN(CC(=O)[O-])CC(=O)[O-])CCN(CC(=O)[O-])CC(=O)[O-].[Gd+3] [Gd-DTPA]
- R1 (1/T1), relaxivity [1]: 4.68 ± 0.279 per millimole of paramagnetic
- R2 (1/T2), relaxivity [1]: 5.17 ± 0.148 per millimole of paramagnetic
- R1, relaxivity ([2]; 1.0 mM): 4.58 ± 0.143
- R2, relaxivity ([2]; 1.0 mM): 5.41 ± 0.65
- toxicity (in words) [3]: much less toxicity

Compound: [Cl][Mn][Cl] [MnCl2, manganese chloride]
- Interpolated LD50s (Outbred ICR mice): 250 µmol/kg
- R1, relaxivity ([2]; with and without albumin): 8.73 ± 0.928
- R2, relaxivity ([2]; with and without albumin): 39.45 ± 0.515
- Tumor Contrast To Noise ([4]; 0.5 μM/kg): 12
- Percent Liver Enhancement ([4]; 0.5 μM/kg, delayed post (30 minutes delay)): 0%
- Contrast to Noise ([4]; 0.5 μM/kg, post): 19
- Percent Liver Enhancement ([4]; 0.5 μM/kg, post): 0%
- Contrast to Noise ([4]; 0.5 μM/kg, pre): 28
- Tumor Contrast To Noise ([4]; 1.0 μM/kg): 16
- Percent Liver Enhancement ([4]; 1.0 μM/kg, delayed post (30 minutes delay)): 0%
- Contrast to Noise ([4]; 1.0 μM/kg, post): 23
- Percent Liver Enhancement ([4]; 1.0 μM/kg, post): 0%
- Contrast to Noise ([4]; 1.0 μM/kg, pre): 37.5
- Tumor Contrast To Noise ([4]; 2.5 μM/kg): 35.9
- Percent Liver Enhancement ([4]; 2.5 μM/kg, delayed post (30 minutes delay)): 29.4%
- Contrast to Noise ([4]; 2.5 μM/kg, post): 17.9
- Percent Liver Enhancement ([4]; 2.5 μM/kg, post): 25%
- Contrast to Noise ([4]; 2.5 μM/kg, pre): 13.1
- Tumor Contrast To Noise ([4]; 5.0 μM/kg): 31.3
- Percent Liver Enhancement ([4]; 5.0 μM/kg, delayed post (30 minutes delay)): 21%
- Contrast to Noise ([4]; 5.0 μM/kg, post): 28.3
- Percent Liver Enhancement ([4]; 5.0 μM/kg, post): 43%
- Contrast to Noise ([4]; 5.0 μM/kg, pre): 21.3
- Tumor Contrast To Noise ([4]; 10.0 μM/kg): 29.6
- Percent Liver Enhancement ([4]; 10 μM/kg, delayed post (30 minutes delay)): 61%
- Percent Liver Enhancement ([4]; 10 μM/kg, post): 81%
- Contrast to Noise ([4]; 10.0 μM/kg, post): 29.2
- Contrast to Noise ([4]; 10.0 μM/kg, pre): 9.3

Compound: Manganese N,N'-Bis-(Carboxy-Decylamidomethyl-N-2,3-Dihydroxypropyl)-Ethylenediamine- N,N'-Diacetate [Mn-EDTA-DDP]
- Interpolated LD50s (Outbred ICR mice): 240 µmol/kg
- R1, relaxivity ([2]; with and without albumin): 9.83 ± 0.332
- R2, relaxivity ([2]; with and without albumin): 15.20 ± 0.393
